Calls of active or inactive are those of the source.
Legend:
[1] = microbe, parasite or virus in culture; type: functional; conditions: Mycobacterium tuberculosis
[2] = Luminescence Cell-Based Dose Retest to Confirm Inhibitors of Cancer Stem Cells. [Related pubchem assays (depositor defined):AID2717, AID2721]; type: functional; conditions: Homo sapiens
[3] = Concentration-dependent survival of SW480 colon cancer line, luminescence detection with CellTiter-Glo, half-maximal inhibitory concentration (AID 1117338); type: functional
[4] = RKO cell viability reduction, dose response, CellTiter-Glo luminescence (AID 1117322); type: functional
[5] = cytotoxicity toward HCT116 cells – cell-based, CellTiter-Glo luminescence, IC50, dose response (AID 1117332); type: functional; conditions: HCT-116
[6] = SNU-C1 cell viability reduction, dose response, CellTiter-Glo luminescence (AID 1117323); type: functional, cell-based
[7] = cytotoxicity toward Colo320 cells – cell-based, CellTiter-Glo luminescence, IC50, dose response (AID 1117334); type: functional; conditions: COLO 320
[8] = cytotoxicity toward HT-29 cells – cell-based, CellTiter-Glo luminescence, IC50, dose response (AID 1117330); type: functional
[9] = CellTiter-Glo luminescent dose response of DLD-1 viability loss (AID 1117352); type: functional
[10] = HCT116 cell viability decrease, GSK3B pretreatment – CellTiter-Glo, IC50, dose response (AID 1117339); type: functional; conditions: HCT-116
[11] = target: Metabotropic glutamate receptor 5 (Rattus norvegicus, UniProt P31424); assay: Identification of a glycine sulfonamide based non-MPEP site positive allosteric potentiator (PAM) of mGlu5 (calcium_assay).; type: functional
Sequence of Metabotropic glutamate receptor 5 (P31424 whole entry): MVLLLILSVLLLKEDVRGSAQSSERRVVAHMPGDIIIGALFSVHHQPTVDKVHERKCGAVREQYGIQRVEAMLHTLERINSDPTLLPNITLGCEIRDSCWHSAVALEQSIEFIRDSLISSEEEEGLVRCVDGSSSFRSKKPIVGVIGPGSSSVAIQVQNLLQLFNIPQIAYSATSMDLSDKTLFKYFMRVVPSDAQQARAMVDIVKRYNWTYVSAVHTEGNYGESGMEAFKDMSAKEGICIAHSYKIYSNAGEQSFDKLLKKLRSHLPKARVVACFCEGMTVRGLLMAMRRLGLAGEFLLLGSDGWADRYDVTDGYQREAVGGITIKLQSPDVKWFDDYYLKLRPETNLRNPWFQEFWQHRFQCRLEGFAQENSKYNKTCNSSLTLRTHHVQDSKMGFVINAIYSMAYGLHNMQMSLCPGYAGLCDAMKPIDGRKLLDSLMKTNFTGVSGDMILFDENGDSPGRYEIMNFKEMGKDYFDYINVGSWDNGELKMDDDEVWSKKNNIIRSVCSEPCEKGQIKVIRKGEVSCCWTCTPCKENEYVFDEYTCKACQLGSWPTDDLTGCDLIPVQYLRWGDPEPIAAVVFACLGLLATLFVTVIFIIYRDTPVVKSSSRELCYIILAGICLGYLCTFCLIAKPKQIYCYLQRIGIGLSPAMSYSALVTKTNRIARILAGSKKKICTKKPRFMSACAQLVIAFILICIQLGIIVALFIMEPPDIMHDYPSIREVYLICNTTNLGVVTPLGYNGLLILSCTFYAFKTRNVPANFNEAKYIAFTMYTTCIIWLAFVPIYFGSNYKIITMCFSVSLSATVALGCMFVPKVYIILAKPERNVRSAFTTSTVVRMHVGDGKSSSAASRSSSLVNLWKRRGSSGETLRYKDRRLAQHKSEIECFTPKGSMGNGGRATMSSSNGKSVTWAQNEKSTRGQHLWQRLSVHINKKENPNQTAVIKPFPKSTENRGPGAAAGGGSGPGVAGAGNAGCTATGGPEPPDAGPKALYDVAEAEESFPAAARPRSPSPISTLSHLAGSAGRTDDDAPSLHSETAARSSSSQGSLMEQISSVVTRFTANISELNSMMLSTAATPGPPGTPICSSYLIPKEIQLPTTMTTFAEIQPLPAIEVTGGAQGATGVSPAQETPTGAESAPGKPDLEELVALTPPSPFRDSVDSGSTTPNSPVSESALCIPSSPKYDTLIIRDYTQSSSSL

Phospholipase D2 [12] = target: T1, Phospholipase D2 (Homo sapiens, UniProt O14939); assay: PLD2 Cellular Concentration Response Study.; type: functional
T1 sequence (O14939 whole entry): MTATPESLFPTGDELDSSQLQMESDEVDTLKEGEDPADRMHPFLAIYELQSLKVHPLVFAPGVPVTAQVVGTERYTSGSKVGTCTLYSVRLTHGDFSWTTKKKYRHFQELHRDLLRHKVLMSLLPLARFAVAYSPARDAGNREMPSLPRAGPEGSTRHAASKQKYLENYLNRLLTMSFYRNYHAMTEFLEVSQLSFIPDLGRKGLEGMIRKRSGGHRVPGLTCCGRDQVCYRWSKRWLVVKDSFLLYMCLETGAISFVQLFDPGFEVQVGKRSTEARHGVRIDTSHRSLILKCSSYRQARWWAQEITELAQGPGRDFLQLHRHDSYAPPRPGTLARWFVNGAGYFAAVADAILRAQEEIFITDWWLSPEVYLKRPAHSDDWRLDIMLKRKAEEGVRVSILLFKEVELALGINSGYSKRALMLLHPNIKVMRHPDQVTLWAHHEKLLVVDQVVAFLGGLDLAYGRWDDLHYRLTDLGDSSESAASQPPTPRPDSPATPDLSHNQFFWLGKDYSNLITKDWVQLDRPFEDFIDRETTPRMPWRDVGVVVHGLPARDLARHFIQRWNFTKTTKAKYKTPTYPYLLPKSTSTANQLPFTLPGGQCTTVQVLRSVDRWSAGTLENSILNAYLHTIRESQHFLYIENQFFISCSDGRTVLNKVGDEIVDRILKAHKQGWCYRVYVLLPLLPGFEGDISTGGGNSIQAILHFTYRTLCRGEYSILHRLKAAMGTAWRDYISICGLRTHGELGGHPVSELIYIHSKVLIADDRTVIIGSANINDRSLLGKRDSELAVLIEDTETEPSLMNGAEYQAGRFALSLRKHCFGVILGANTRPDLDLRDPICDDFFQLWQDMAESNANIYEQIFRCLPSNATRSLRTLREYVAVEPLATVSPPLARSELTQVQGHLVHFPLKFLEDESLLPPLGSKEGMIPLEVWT

Phospholipase D2 [13] = target: T1, Phospholipase D2; assay: Discovery of PLD2 inhibitors using the Purified Enzyme Concentration Response Assay.; type: functional
Phospholipase D1 [14] = target: T2, Phospholipase D1 (Homo sapiens, UniProt Q13393); assay: PLD1 Cellular Concentration Response Study.; type: functional
T2 sequence (Q13393 whole entry): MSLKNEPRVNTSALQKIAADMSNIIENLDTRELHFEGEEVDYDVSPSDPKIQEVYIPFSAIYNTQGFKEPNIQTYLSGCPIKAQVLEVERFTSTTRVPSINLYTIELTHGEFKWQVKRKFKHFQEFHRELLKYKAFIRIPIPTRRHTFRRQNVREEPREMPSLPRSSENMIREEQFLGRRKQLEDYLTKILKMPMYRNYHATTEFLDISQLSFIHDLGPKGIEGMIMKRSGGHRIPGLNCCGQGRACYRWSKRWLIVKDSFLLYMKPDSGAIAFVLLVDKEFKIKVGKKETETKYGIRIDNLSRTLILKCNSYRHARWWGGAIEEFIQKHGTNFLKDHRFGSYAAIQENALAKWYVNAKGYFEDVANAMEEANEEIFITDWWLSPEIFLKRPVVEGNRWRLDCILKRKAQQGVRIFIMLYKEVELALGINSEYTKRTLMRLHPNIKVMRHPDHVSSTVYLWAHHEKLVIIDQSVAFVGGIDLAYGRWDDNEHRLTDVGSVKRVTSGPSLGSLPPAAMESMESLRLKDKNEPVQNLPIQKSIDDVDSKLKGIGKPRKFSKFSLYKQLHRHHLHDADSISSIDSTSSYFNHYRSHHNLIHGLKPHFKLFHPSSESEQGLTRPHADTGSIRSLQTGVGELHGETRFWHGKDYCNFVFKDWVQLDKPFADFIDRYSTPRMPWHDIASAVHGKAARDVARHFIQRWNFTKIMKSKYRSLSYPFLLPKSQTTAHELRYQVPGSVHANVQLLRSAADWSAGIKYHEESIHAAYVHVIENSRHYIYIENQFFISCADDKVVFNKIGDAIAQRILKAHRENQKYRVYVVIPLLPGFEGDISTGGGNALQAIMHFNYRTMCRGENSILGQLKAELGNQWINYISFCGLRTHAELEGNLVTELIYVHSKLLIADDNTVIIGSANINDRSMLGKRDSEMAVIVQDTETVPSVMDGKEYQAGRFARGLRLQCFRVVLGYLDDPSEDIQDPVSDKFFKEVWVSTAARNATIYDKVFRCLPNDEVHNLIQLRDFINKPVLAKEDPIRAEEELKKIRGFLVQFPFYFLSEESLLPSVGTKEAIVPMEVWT

Phospholipase D1 [15] = target: T2, Phospholipase D1; assay: purified PLD1 inhibitor potency, IC50, confirmation, biochemical, concentration response (AID 743390); type: functional
[16] = HEK293T cytotoxicity, dose response, cytotoxicity control for miR-122 modulator project, cell-based, activator set, cherry-pick (AID 720690); type: functional;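 further: HEK293T human cells scored for general mammalian cytotoxicity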
[17] = HEK293 cell cytotoxicity, dose response, cytotoxicity control, cherry-picks, set 5 (AID 1053117); type: functional, cell-based
[18] = fibronectin fibrillogenesis inhibitors in fibroblasts, dose response, AH1F cells, Alexa488-fibronectin fluorescence, cherry-pick, set 2 (AID 1117283); type: functional, cell-based
[19] = endogenous miR-122 level reduction, dose response, orthogonal assay for miR-122 inhibitor project, cell-based, Huh7, RT-qPCR, dry powder (AID 687041); type: functional
[20] = A375 melanoma cell cytotoxicity, dose response, counter-screen for MITF inhibitor project, CellTiter-Glo luminescence, dry powder, set 7 (AID 624490); type: functional, cell-based; conditions: A-375
[21] = SK-MEL-5 parental line viability, dose response, MITF inhibitor project, cell-based, CellTiter-Glo, dry powder, set 6 (AID 624429); type: functional
[22] = MITF Orthogonal Assay: SK-MEL-5 CTG Assay Measured in Cell-Based System Using Plate Reader - 2084-02_Inhibitor_Dose_DryPowder_Activity_Set5.; type: functional
[23] = MITF Measured in Cell-Based System Using Plate Reader - 2084-01_Inhibitor_Dose_DryPowder_Activity_Set6.; type: functional
[24] = MITF Measured in Cell-Based System Using Plate Reader - 2084-01_Inhibitor_Dose_DryPowder_Activity_Set7.; type: functional
[25] = THP-1 cell cytotoxicity, dose response, cytotoxicity control for Vif-APOBEC3G degradation inhibitor project, THP-1 cells (AID 1117359); type: functional; conditions: Human immunodeficiency virus 1, THP-1
[26] = target: Glutathione-S-transferase (Schistosoma japonicum, UniProt Q26513); assay: biotin-GST/anti-GST TR-FRET signal inhibitors, dose response, artefact control for Vif-APOBEC3G degradation inhibitor project, biochemical (AID 1117362); type: functional
Sequence of Glutathione-S-transferase (Q26513 whole entry): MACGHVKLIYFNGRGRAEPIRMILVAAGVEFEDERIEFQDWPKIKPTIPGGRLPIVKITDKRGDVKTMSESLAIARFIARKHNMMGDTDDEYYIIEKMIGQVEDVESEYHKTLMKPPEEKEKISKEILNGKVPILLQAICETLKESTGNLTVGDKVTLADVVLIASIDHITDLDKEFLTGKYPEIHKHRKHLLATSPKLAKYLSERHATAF

[27] = target: T3, Heat shock factor protein 1 (Mus musculus, UniProt P38532); assay: HSF1 potentiators in luciferase reporter cells, confirmation, cell-based, NIH3T3, luminescence, dose retest (AID 435004); type: functional;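 further: stress induced by proteasome inhibitor MG132 added 30 min after compound; luciferase reporter driven by HSF1 response element in NIH3T3 cells; actives raise luminescence as potentiators of the MG132 stress response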
T3 sequence (P38532 whole entry): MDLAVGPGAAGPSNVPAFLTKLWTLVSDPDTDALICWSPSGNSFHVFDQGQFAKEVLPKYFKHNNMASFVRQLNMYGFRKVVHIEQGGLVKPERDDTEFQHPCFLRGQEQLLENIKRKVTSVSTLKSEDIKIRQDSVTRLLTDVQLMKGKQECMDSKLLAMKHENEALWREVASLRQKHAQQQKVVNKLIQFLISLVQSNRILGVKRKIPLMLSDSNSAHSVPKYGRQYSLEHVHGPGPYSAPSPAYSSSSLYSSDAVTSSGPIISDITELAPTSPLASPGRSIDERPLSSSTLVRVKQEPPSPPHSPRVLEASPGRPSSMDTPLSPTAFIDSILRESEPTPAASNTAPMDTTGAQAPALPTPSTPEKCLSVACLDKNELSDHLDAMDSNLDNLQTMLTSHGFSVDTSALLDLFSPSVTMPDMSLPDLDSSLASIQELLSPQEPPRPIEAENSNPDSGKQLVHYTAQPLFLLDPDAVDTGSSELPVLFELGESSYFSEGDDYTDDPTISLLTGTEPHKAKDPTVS

[28] = HepG2 cell cytotoxicity, dose response, cytotoxicity control, ATP luminescence, cherry-pick, set 6 (AID 1053125); type: functional, cell-based
cells [29] = conditions: A549
cells [30] = assay: cells
[31] = target: NAD-dependent protein deacylase sirtuin-5, mitochondrial (Homo sapiens, UniProt Q9NXA8); assay: SIRT5 desuccinylase inhibitors, dose response, biochemical, fluorescence imaging, cherry-pick, set 5 (AID 720591);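 further: desuccinylation of succinyl peptide AMC substrate read as fluorescence after trypsin release; potency of inhibitors that lower fluorescence and may act on trypsin instead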
Sequence of NAD-dependent protein deacylase sirtuin-5, mitochondrial (Q9NXA8 whole entry): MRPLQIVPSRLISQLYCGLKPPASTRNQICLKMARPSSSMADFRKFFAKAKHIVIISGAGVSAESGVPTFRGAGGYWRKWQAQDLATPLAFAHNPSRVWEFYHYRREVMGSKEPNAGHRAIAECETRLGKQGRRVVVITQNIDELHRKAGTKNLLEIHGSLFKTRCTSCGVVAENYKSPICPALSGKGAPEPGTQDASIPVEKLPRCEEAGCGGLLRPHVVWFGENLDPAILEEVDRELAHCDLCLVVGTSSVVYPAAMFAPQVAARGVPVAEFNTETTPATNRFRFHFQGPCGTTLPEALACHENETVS

[32] = P. falciparum Dd2 blood-stage growth inhibition, dose response, SYBR Green fluorescence, erythrocytes, dry powder, set 2 (AID 1159574); type: functional, cell-based
[33] = C. neoformans growth inhibition with sorbitol, dose response, mechanism study for C. neoformans lysis project, alamar blue, dry powder, set 3 (AID 743304); type: functional, organism-based
cells [34] = conditions: HEK293
[35] = target: Solute carrier family 12 member 2/member 5 (Homo sapiens, UniProt P55011+Q9H2X9); assay: KCC2 and NKCC1 inhibition by rubidium flux, cell-based, NKCC1 counter-screen (AID 1734); type: functional, HEK293
[36] = A Cell Based Secondary Assay To Explore Cytotoxicity of Compounds that Sensitize Mycobacterium Tuberculosis to Beta-Lactam Antibiotics.; type: functional
[37] = Vero cell cytotoxicity, dose response, cytotoxicity control for Vif-APOBEC3G degradation inhibitor project, Vero cells (AID 1117358); type: functional; conditions: Human immunodeficiency virus 1, Vero
[38] = inhibitors of Vif binding to APOBEC3G peptide, primary screen, biochemical, TR-FRET, GST-Vif 1-94, biotin-A3G peptide, dose response retest (AID 1117319); type: functional;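 further: TR-FRET signal of purified GST-Vif binding a biotinylated A3G peptide; inhibitors lower the FRET signal by blocking Vif and A3G binding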

**Q.** Which CC50 [1] does the source give for `CC1=C(/C=C/C(C)=C/C=C/C(C)=C/C(=O)Nc2ccc(O)cc2)C(C)(C)CCC1` [FENRETINIDE] here?
**A.** 14.4 µM (active)

**Q.** What about the AC50 [2] of the same compound?
**A.** 1.04 µM (active)

**Q.** And the IC50 [3]?
**A.** 4.85 µM (active)

**Q.** What about the IC50 [4] of the same compound?
**A.** 1.72 µM (active)

**Q.** What about the IC50 [5] of the same compound?
**A.** 5.3 µM (inactive)

**Q.** And the IC50 [6]?
**A.** 6.69 µM (inactive)

**Q.** And the IC50 [7]?
**A.** 3.24 µM (active)

**Q.** And the IC50 [8]?
**A.** 2.12 µM (active)

**Q.** And the IC50 [9]?
**A.** 9.49 µM (inactive)

**Q.** And the IC50 [10]?
**A.** 4.95 µM (active)

**Q.** Which EC50 [11] does the source give for `CS(=O)(=O)N(CC(=O)N1CCc2ccccc21)c1cc(C(F)(F)F)ccc1Cl` here?
**A.** 10 µM (inconclusive)

**Q.** With `O=C(NCCN1CCC2(CC1)C(=O)NCN2Cc1cccnc1)c1cc2ccccc2[nH]1` as the compound, how does the IC50 (Phospholipase D2 [12]) read?
**A.** 50 nM (active)

**Q.** And the IC50 (Phospholipase D2 [13])?
**A.** 940 nM (active)

**Q.** And the IC50 (Phospholipase D1 [14])?
**A.** 3.59 µM (active)

**Q.** What about the IC50 (Phospholipase D1 [15]) of the same compound?
**A.** 20 µM (active)

**Q.** Which AC50 [16] does the source give for `CO[C@H]1CN(C)C(=O)c2cc(NC(=O)Nc3cc(Cl)cc(Cl)c3)ccc2OC[C@H](C)NC[C@@H]1C` here?
**A.** 16.9 µM (active)

**Q.** What about the AC50 [17] of the same compound?
**A.** > 52 µM (inactive)

**Q.** And the AC50 [18]?
**A.** > 70 µM (inactive)

**Q.** Which AC50 [19] does the source give for `Cc1ccc(S(=O)(=O)Nc2ccc3c4c(cccc24)CC3)c(C)c1` here?
**A.** 567 nM (active)

**Q.** With `CNC1=CC(=O)c2ccccc2C1=O` as the compound, how does the AC50 [20] read?
**A.** > 70 µM (inactive)

**Q.** And the AC50 [21]?
**A.** 62.6 µM (active)

**Q.** And the AC50 [22]?
**A.** 52.9 µM (active)

**Q.** And the AC50 [23]?
**A.** 11.3 µM (active)

**Q.** What about the AC50 [24] of the same compound?
**A.** 17.2 µM (active)

**Q.** Which CC50 [25] does the source give for `COc1ccc2c(c1)O[C@@H](c1ccc3c(c1)OCO3)[C@H](OC(=O)Nc1cc(OC)c(OC)c(OC)c1)C2=O` here?
**A.** 6.65 µM (active)

**Q.** And the IC50 [26]?
**A.** > 100 µM (active)

**Q.** With `COc1ccc(C2C3=C(CCCC3=O)N(CC(=O)O)C3=C2C(=O)CCC3)cc1Cl` as the compound, how does the EC50 [27] read?
**A.** > 260 µM (inactive)

**Q.** What about the AC50 [28] of the same compound?
**A.** > 52 µM (inactive)

**Q.** What about the AC50 (cells [29]) of the same compound?
**A.** > 52 µM (inactive)

**Q.** And the AC50 (cells [30])?
**A.** 2.66 µM (active)

**Q.** Which AC50 [31] does the source give for `CCC(C)(C)NC(=O)C(c1ccc(F)cc1)N(Cc1ccco1)C(=O)CCC(=O)Nc1ccccn1` (stereo not drawn) here?
**A.** > 30 µM (inactive)

**Q.** Which AC50 [32] does the source give for `O=C(c1ccccc1F)N1CC(=O)N2[C@H](CO)[C@H](c3ccc(-c4cccnc4)cc3)[C@@H]2C1` here?
**A.** > 39 µM (inactive)

**Q.** Which AC50 [33] does the source give for `COCc1nc2ccccc2n1CCOc1ccc(C(C)(C)C)cc1` here?
**A.** 52.3 µM (active)

**Q.** And the AC50 (cells [34])?
**A.** 34 µM (active)

**Q.** With `O=C(/C=C/c1ccccc1)Nc1scc(-c2ccccc2)c1C(=O)O` as the compound, how does the IC50 [35] read?
**A.** 7.9 µM (active)

**Q.** Which CC50 [36] does the source give for `O=C(NNC(=O)c1cc(OCC(F)(F)F)ccc1OCC(F)(F)F)c1cccc(C(F)(F)F)c1` here?
**A.** > 40 µM (active)

**Q.** What about the CC50 [37] of the same compound?
**A.** > 40 µM (active)

**Q.** With `O=C(Nc1c2c(nn1-c1ccc(F)cc1)C[S+]([O-])C2)C12CC3CC(CC(C3)C1)C2` (stereo not drawn) as the compound, how does the IC50 [38] read?
**A.** > 100 µM (active)

Source: ChEMBL document CHEMBL1201862, “PubChem BioAssay data set” (2004)
